What was measured:
hyperlipidemia rats [1] = assay: Liver appearance and HE histopathological observation in hyperlipidemia rats; format: in vivo, SD rats; settings: compared with the model group, 20 mg/(kg d)
Text: (§1) Animals: 54 SPF-grade SD rats, weighing 120±10 g, provided by Laboratory Animal Business Department, Shanghai Family Planning Research Institute, China, Animal license number: SCXK(Shanghai)2018-0006.
(§2) Modeling scheme: 54 adult rats of 120±10 g were selected and fed adaptively for three days. They were then randomly divided to 6 groups, 9 animals for each group. They were blank control group, model group, positive control group, nuciferine group, and nuciferine structural modification group. The blank control group was fed with normal diet. […] The feeding and modeling time was 5 weeks.
(§3) Liver tissue sample collection: the rats were killed by dislocation, and the liver was taken out immediately after death, which was observed by naked eye to find out whether there was abnormal color and lesions, and was then rinsed with ice normal saline. The left lobe of the liver was quickly cut into small pieces and fixed in 10% formaldehyde overnight for sectioning. The tissue of the right lobe of the liver was quickly wrapped in tin box and stored at −80° C. for later use.

[2] = TCMSP database, screening threshold OB ≥30%; cited from earlier work
TNF-α = assay: Immunohistochemistry of liver of hyperlipidemia rats; format: in vivo, SD rats; settings: compared with the model group, 20 mg/(kg d)
Text: as §1
(§4) Drug to be tested: Nuciferine purchased from Shanghai Aladdin Biochemical Technology Co., Ltd., China, and its derivatives (purity >99%) that were synthesized in the laboratory by the methods of Examples 2-7.
(§5) Other reagents: AST, ALT, TC, TG, NEFA, Bun, Cr, CAT, GSH-Px, GSH, MDA test kits, purchased from Nanjing Jiancheng Bioengineering Institute, China; HL and PL test kits, purchased from Jianglai Biotechnology Co., Ltd., China; experimental reagents such as anhydrous ethanol, xylene, isopropanol neutral gum, purchased from Sinopharm Chemical Reagent Co., Ltd., China; HE dye solution, DAB color development agent, and oil red O dye solution, purchased from KeyGEN Biotechnology Co., Ltd, China; Antibodies IL-6 and TNF-α, purchased from Abcam Limited.
as §2, with “weeks. […]” for “weeks.”

IL-6 = assay: as above; format: in vivo, SD rats; settings: compared with the model group, 20 mg/(kg d)
Text: as §1, §4, §5
as §2, with “weeks. […]” for “weeks.”

hyperlipidemia rats [3] = assay: Serum biochemical indicators in high-fat diet hyperlipidemia rats; format: in vivo, SD rats; settings: for LDL-C / TC / TG / ALT (U/L) / AST (U/L) / Bun / Cr: serum, 20 mg/(kg d) by gastric gavage, 4 weeks; for ALT (U/L) / AST (U/L) / Bun / Cr: x ± s, n = 9
Text: as §1, §4, §5
as §2, with “weeks. Within 4 weeks after modeling, continuous administration was performed: the blank control group and model group were given 0.2 mL of distilled water by gastric gavage; the positive control group was administrated 20 mg/(kg d) of simvastatin; while the treatment group was administrated 20 mg/(kg d) of nuciferine or 20 mg/(kg d) of a derivative of nuciferine (compounds 6a-6f).” for “weeks.”
Blood sample collection: 24 h after the last gastric gavage administration, eyeballs were taken out and blood was drawn. Whole blood was collected in an EP tube, and centrifuged at 3000 r/min and 4° C. for 10 min, and the supernatant was collected and stored at −20° C. for blood biochemical indicator test.
(§6) Biochemical indicator determination: indicators AST, ALT, TC, TG, NEFA, Bun, Cr, CAT, GSH-Px, GSH, MDA, HL, PL were determined according to the instructions of the kits.

hyperlipidemia rats [4] = assay: Liver and kidney indexes in high-fat diet hyperlipidemia rats; format: in vivo, SD rats; settings: 20 mg/(kg d) by gastric gavage, 4 weeks, x ± s, n = 9
Text: as §1, §2, §3

hyperlipidemia rats [5] = assay: Oil red O staining of liver in hyperlipidemia rats; format: in vivo, SD rats; settings: compared with the model group, 20 mg/(kg d)
Text: as §1, §4
as §2, with “weeks. Within 4 weeks after modeling, continuous administration was performed: the blank control group and model group were given 0.2 mL of distilled water by gastric gavage; the positive control group was administrated 20 mg/(kg d) of simvastatin; while the treatment group was administrated 20 mg/(kg d) of nuciferine or 20 mg/(kg d) of a derivative of nuciferine (compounds 6a-6f). […]” for “weeks.”

hyperlipidemia rats [6] = assay: Liver tissue homogenate biochemical indicators in high-fat diet hyperlipidemia rats; format: in vivo, SD rats; settings: for CAT (U/mgprot) / GSH (μmol/gprot) / GSH-Px (U/mgprot) / HL (U/mgprot) / LPL (U/mgprot) / MDA (nmol/mgprot) / NEFA (μmol/g prot) / TG (mmol/g prot): liver tissue, 20 mg/(kg d) by gastric gavage, 4 weeks, x ± s, n = 9
Text: as §1, §4, §5
as §2, with “weeks. Within 4 weeks after modeling, continuous administration was performed: the blank control group and model group were given 0.2 mL of distilled water by gastric gavage; the positive control group was administrated 20 mg/(kg d) of simvastatin; while the treatment group was administrated 20 mg/(kg d) of nuciferine or 20 mg/(kg d) of a derivative of nuciferine (compounds 6a-6f).” for “weeks.”
as §3
Preparation of 10% liver homogenate: the liver wrapped in tin box and stored in the ultra-low temperature freezer at −80° C. was taken out, and quickly placed on an ice box. 0.2 g of liver tissue was accurately taken, and ice normal saline with a volume 9 times that of the liver issue was added thereto. 10% tissue homogenate was formed by grounding and mixing, and then centrifuged at 3000 r/min and 4° C. for 10 min. The supernatant was collected for later use.
as §6

Row | SMILES | LDL-C (hyperlipidemia rats [3]) | TC (hyperlipidemia rats [3]) | TG (hyperlipidemia rats [3]) | ALT (U/L) (hyperlipidemia rats [3]) | AST (U/L) (hyperlipidemia rats [3]) | Bun (hyperlipidemia rats [3]) | Cr (hyperlipidemia rats [3]) | Kidney index (%) (hyperlipidemia rats [4]) | Liver index (%) (hyperlipidemia rats [4]) | CAT (U/mgprot) (hyperlipidemia rats [6]) | GSH (μmol/gprot) (hyperlipidemia rats [6]) | GSH-Px (U/mgprot) (hyperlipidemia rats [6]) | HL (U/mgprot) (hyperlipidemia rats [6]) | LPL (U/mgprot) (hyperlipidemia rats [6]) | MDA (nmol/mgprot) (hyperlipidemia rats [6]) | NEFA (μmol/g prot) (hyperlipidemia rats [6]) | TG (mmol/g prot) (hyperlipidemia rats [6]) | also measured
1 | COc1cc2c3c(c1OC)-c1ccccc1C[C@H]3N(C)CC2 [Nuciferine] | 0.53 ± 0.12 mmol/L | 1.90 ± 0.19 mmol/L | 0.48 ± 0.04 mmol/L | 13.97 ± 5.71 U/L | 6.43 ± 1.56 U/L | 3.27 ± 0.22 mmol/L | 52.59 ± 4.81 µmol/L | 0.68 ± 0.04 % | 4.52 ± 0.30 % | 28.44 ± 3.34 U/mgprot | 377.68 ± 137.77 μmol/gprot | 720.65 ± 59.57 U/mgprot | 0.47 ± 0.05 U/mgprot | 0.43 ± 0.07 U/mgprot | 0.92 ± 0.15 nmol/mgprot | 99.87 ± 8.25 μmol/g prot | 0.08 ± 0.01 mmol/g prot | HE-stained liver tissue: lipid vacuoles and inflammatory infiltration (FIG. 9) (hyperlipidemia rats [1]): lipid vacuoles in hepatocytes are significantly reduced; OB/% (oral bioavailability) [2]: 34.43%; Expression level of TNF-α in liver (FIG. 12) (TNF-α): decrease; Expression level of IL-6 in liver (FIG. 11) (IL-6): decrease; Content of HDL-C in the serum, result in words (hyperlipidemia rats [3]; compared with the model group): significantly increases; Serum AST and ALT contents, result in words (hyperlipidemia rats [3]; compared with the model group): best effect; Oil red O-stained liver sections: lipid accumulation (FIG. 10) (hyperlipidemia rats [5]): reduced fat accumulation; HL and LPL contents in liver tissue, result in words (hyperlipidemia rats [6]; compared with the model group): best effect; NEFA content in liver tissue, result in words (hyperlipidemia rats [6]; compared with the model group): significantly decreases
2 | COc1cc2c3c(c1OC)-c1ccccc1CC3N(C(=O)c1ccc(F)cc1)CC2 (centres unmarked) [Compound 6b, p-Fluorobenzoylnuciferine] | 0.68 ± 0.16 mmol/L | 2.01 ± 0.14 mmol/L | 0.57 ± 0.08 mmol/L | 16.43 ± 9.51 U/L | 7.91 ± 2.21 U/L | 3.48 ± 0.24 mmol/L | 53.90 ± 1.81 µmol/L | 0.68 ± 0.02 % | 4.58 ± 0.23 % | 25.90 ± 4.29 U/mgprot | 365.04 ± 71.78 μmol/gprot | 532.14 ± 30.92 U/mgprot | 0.51 ± 0.05 U/mgprot | 0.29 ± 0.10 U/mgprot | 1.03 ± 0.33 nmol/mgprot | 106.32 ± 22.95 μmol/g prot | 0.13 ± 0.02 mmol/g prot | Liver appearance (photographs, FIG. 8) (hyperlipidemia rats [1]): more brittle
